The subject of data set [1] is L-type calcium channels. Briefly: FLIPR L-Type Calcium Channel Assay. As to conditions: HL-1 cells expressing endogenous L-type calcium channels; calcium influx after 20 mM KCl; read-out: L-type Ca^2+ IC50. Format: cell-based, murine. On the procedure: 50 μL per well test compounds are added to the plates and further incubated for 15 min. in a 5% CO2 37° C. incubator. All final solutions contain the anion exchange inhibitor, probenecid (2.5 mM). The 96-well plates are then placed in the center position of the FLIPR 1 (Fluorometric Imaging Plate Reader, Molecular Devices Corporation). Cell monolayers in each well are simultaneously illuminated at 488 nm with an Argon ion laser, and fluorescence emission is monitored using a 510-570 nm bandpass filter and a cooled CCD camera. To depolarize the plasma membrane and activate L-type calcium channels, 50 μL per well of 20 mM KCl (final concentration) are dispensed simultaneously to all 96 wells using the FLIPR's automatic 96-well pipettor. Fluorescence measurements are captured for 5 min. following KCl addition. Calcium influx, expressed as % control, is calculated for each concentration of test compound and concentration-response curves and IC50 values are generated using GraphPad Prism 4.0.

The target of data set [2] is T1, Kv1.5 (Homo sapiens, UniProt P22460).
T1 construct: expressed in transfected cells; host or cells: HEK or LTK- cells
T1 sequence (P22460 whole entry): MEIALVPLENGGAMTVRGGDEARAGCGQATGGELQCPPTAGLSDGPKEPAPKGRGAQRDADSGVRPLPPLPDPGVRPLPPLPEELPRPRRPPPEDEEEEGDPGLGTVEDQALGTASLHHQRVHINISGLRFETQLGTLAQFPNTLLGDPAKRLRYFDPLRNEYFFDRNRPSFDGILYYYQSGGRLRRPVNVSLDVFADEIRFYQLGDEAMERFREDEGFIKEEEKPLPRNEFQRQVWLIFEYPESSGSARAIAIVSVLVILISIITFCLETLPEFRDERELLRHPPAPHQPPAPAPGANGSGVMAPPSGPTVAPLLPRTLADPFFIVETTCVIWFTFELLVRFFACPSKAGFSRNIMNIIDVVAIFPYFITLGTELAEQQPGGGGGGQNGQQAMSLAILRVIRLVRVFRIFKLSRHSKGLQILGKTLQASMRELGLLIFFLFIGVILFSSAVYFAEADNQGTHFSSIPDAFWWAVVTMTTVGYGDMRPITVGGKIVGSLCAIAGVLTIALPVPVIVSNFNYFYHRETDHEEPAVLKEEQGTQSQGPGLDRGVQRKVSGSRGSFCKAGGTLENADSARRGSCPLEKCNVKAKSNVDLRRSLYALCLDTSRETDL
Briefly: Kv1.5 Patch Clamp EP. It counts as cell-based. The settings on record: whole cell patch clamp; for IC50: HEK or LTK- cells, at least four concentrations, n=3. Here is the method:
The external solution is standard Tyrodes solution. […] Inhibition was measured at the end of the 1 second pulses and expressed relative to controls. Initial Kv1.5 inhibition is estimated by single point determinations done at 1 μM.
For orientation: The patch-clamp technique gives a direct electrical read-out from membranes.

Data set [3] has as its target HERG (Homo sapiens, UniProt Q12809). Briefly: HERG Patch Clamp EP. The settings on record: for inhibition at 10 µM: human, HEK cells stably overexpressing HERG.
The mark [4] stands for this setting: 1.0 μM, single point, Kv1.5 stably over expressed in HEK or LTK- cells.

Sequence of HERG (Q12809 whole entry): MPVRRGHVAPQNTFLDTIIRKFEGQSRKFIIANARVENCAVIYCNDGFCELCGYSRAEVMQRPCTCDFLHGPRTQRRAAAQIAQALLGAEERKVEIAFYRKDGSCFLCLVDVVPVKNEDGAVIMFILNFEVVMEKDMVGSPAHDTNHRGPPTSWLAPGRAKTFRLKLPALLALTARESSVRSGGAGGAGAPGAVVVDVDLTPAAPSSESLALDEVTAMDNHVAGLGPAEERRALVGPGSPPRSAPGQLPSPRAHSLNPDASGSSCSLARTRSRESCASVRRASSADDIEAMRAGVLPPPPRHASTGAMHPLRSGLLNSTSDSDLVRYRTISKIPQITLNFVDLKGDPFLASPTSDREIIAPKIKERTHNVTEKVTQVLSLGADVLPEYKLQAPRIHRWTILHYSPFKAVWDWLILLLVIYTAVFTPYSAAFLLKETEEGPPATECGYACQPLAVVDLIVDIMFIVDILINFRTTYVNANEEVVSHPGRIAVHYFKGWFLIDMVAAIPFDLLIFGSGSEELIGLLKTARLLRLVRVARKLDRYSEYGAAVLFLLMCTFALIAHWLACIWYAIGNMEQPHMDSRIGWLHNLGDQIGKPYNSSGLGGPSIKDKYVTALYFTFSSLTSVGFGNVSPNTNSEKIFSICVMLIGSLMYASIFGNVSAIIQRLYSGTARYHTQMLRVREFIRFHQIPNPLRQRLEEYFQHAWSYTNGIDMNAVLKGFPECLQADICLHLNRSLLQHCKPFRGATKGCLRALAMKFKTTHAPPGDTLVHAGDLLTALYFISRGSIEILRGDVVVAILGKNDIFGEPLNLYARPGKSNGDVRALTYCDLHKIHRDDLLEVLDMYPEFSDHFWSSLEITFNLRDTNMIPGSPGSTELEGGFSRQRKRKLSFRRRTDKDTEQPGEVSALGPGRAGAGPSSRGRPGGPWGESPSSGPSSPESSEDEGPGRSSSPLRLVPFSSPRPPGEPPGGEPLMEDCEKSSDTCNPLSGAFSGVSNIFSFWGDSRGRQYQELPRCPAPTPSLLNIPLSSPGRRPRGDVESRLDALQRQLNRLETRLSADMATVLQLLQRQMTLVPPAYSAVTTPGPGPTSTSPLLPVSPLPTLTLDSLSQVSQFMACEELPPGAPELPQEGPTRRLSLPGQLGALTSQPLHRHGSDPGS

Take `COc1ccc(CCN2C(=O)N(NCc3ccc(N(C)C)cc3)CC2c2ccc(C)c(C)c2)cc1` (stereo not drawn) [Compound 92, 1-[(4-(Dimethylamino)phenylmethyl)amino]-3-[2-(4-methoxyphenyl)ethyl]-4-(3,4-dimethylphenyl)-2-imidazolidinone]: the values for the IC50 in data set [1], in data set [2] and in data set [3] were 30 µM, 0.353 µM and 5.6 µM, respectively. Besides, in data set [2] (setting [4]), the inhibition at 1 µM came to 95%. The compound also displayed an inhibition at 10 µM in data set [3] of 58%.

For the compound `COc1ccc(CCN2C(=O)N(NCc3ccccc3)CC2c2ccc(C)c(C)c2)cc1` (stereo not drawn) [Compound 88, 1-Benzylamino-4-(3,4-dimethylphenyl)-3-[2-(4-methoxyphenyl)ethyl]-2-imidazolidinone], the IC50 came out at 11 µM in data set [1] and 0.399 µM in data set [2]. In data set [2] (setting [4]), this compound returned an inhibition at 1 µM of 94%. This compound came in with an inhibition at 10 µM in data set [3] of 90%.

In the case of `COc1ccc(CCN2C(=O)N(NS(=O)(=O)Cc3cccnc3)CC2c2ccc(OC(F)F)cc2)cc1` (stereo not drawn) [Compound 42, 1-[(N-3-Pyridinylmethylsulfonyl)amino]-3-[2-(4-methoxyphenyl)ethyl]-4-(4-difluoromethoxyphenyl)-2-imidazolidinone], the IC50 is 20 µM in data set [1] and 0.418 µM in data set [2]. In addition, the inhibition at 1 µM in data set [2] (setting [4]) came to 91%. This compound registered an inhibition at 10 µM in data set [3] of 90%.

Regarding `COc1ccc(CCN2C(=O)N(NCc3cccnc3)CC2c2ccc(C)c(C)c2)cc1` (stereo not drawn) [Compound 94, 1-[(Pyridin-3-ylmethyl)amino]-3-[2-(4-methoxyphenyl)ethyl]-4-(3,4-dimethylphenyl)-2-imidazolidinone], the half-maximal inhibitory concentration (IC50) in data set [1] was 13 µM. In addition, the inhibition at 1 µM in data set [2] (setting [4]) amounted to 67%. Testing at 10 µM in data set [3] gave an inhibition of 35%.

Turning to `COc1ccc(CCN2C(=O)N(NS(C)(=O)=O)CC2c2ccc(OC(F)F)cc2)cc1` (stereo not drawn) [Compound 26, 1-[(Methylsulfonyl)amino]-3-[2-(4-methoxyphenyl)ethyl]-4-(4-difluoro-methoxyphenyl)-2-imidazolidinone], the IC50 in data set [1] was 17.5 µM; in data set [2] it was 0.716 µM; in data set [3], 4.1 µM. In addition, in data set [2] (setting [4]), the inhibition at 1 µM amounted to 66%. Also, 10 µM produced 76% inhibition in data set [3].

As for `COc1ccc(CCN2C(=O)N(NS(=O)(=O)Cc3cccnc3)CC2c2ccc(OC)cc2)cc1` (stereo not drawn) [Compound 66, 1-[(Pyridin-3-yl)methylsulfonyl]amino-3-[2-(4-methoxyphenyl)ethyl]-4-(4-methoxyphenyl)-2-imidazolidinone], the values for the IC50 in data set [1], in data set [2] and in data set [3] were 30 µM, 0.257 µM and 12.6 µM, respectively. Besides, the inhibition at 1 µM in data set [2] (setting [4]) was found to be 86%.

As to `COc1ccc(CCN2C(=O)N(NS(C)(=O)=O)CC2Cc2ccc(C(C)(C)C)cc2)cc1` (stereo not drawn) [Compound 11, 1-(Methylsulfonylamino)-3-[2-(4-methoxyphenyl)ethyl]-4-[(4-tert-butyl)benzyl]-2-imidazolidinone], the IC50 in data set [1] stood at 13 µM. Also, the inhibition at 1 µM in data set [2] (setting [4]) is 95%. The same compound displayed an inhibition at 10 µM in data set [3] of 45%.

In the case of `CCCS(=O)(=O)NN1CC(c2ccc(C3CC3)cc2)N(CCc2ccc(OC)cc2)C1=O` (stereo not drawn) [Compound 30, 1-(Propylsulfonylamino)-3-[(4-methoxyphenyl)ethyl]-4-(4-cyclopropylphenyl)-2-imidazolidinone], the IC50 in data set [1] came to 3.3 µM. The inhibition at 1 µM in data set [2] (setting [4]) was determined as 88%. For the same compound, the inhibition at 10 µM in data set [3] stood at 62%.

`C=CS(=O)(=O)NN1CC(c2ccc3c(c2)OCCO3)N(CCc2ccc(OC)cc2)C1=O` (stereo not drawn) [Compound 33, 1-(Vinylsulfonylamino)-3-[2-(4-methoxyphenyl)ethyl]-4-[(2,3-dihydrobenzo-[1,4]dioxin-6-yl)]-2-imidazolidinone]: the IC50 in data set [1] was 35 µM. Besides, 1 µM produced 85% inhibition in data set [2] (setting [4]). The inhibition at 10 µM in data set [3] was determined as 20%.

As to `COc1ccc(CCN2C(=O)N(NS(C)(=O)=O)CC2c2ccc(OC(F)(F)F)cc2)cc1` (stereo not drawn) [Compound 27, 1-[(Methylsulfonyl)amino]-3-[2-(4-methoxyphenyl)ethyl]-4-(4-trifluoro-methoxyphenyl)-2-imidazolidinone], the IC50 in data set [1] is 19 µM. Moreover, in data set [2] (setting [4]), the “Kv1.5% inhibition @ 1.0 μM” value was 56%. Moreover, the “HERG % Inhib. @ 10 μM” value in data set [3] (10 μM, single point, whole cell patch clamp, HERG stably over expressed in HEK cells, peak tail current) stood at 63%.

As for `COc1ccc(CCN2C(=O)N(NCc3ccc(F)cc3)CC2c2ccc(C)c(C)c2)cc1` (stereo not drawn) [Compound 89, 1-[(4-Fluorophenylmethyl)amino]-3-[2-(4-methoxyphenyl)ethyl]-4-(3,4-dimethylphenyl)-2-imidazolidinone], the IC50 in data set [1] is 7.6 µM. Moreover, in data set [2] (setting [4]), the inhibition at 1 µM is 85%. In data set [3], at 10 µM the inhibition was 98%.

For the compound `COc1ccc(CCN2C(=O)N(NS(=O)(=O)CC(F)(F)F)CC2c2ccc(C(C)(C)C)cc2)cc1` (stereo not drawn) [Compound 38, 1-(2,2,2-Trifluoroethanesulfonylamino)-4-[4-(tert-butyl)phenyl]-3-[2-(4-methoxyphenyl)ethyl]-2-imidazolidinone], the IC50 in data set [1] was 5.6 µM. The compound also displayed an inhibition at 1 µM in data set [2] (setting [4]) of 85%. The same compound returned an inhibition at 10 µM in data set [3] of 56%.

As for `COc1ccc(CCN2C(=O)N(NS(=O)(=O)Cc3cccnc3)CC2c2ccc(C3CC3)cc2)cc1` (stereo not drawn) [Compound 64, 1-[(Pyridin-3-yl)methanesulfonyl]amino-3-[(4-methoxyphenyl)ethyl]-4-(4-cyclopropylphenyl)-imidazolidin-2-one], the IC50 in data set [1] was found to be 14 µM. The compound further came in with an inhibition at 1 µM in data set [2] (setting [4]) of 96%. Besides, the inhibition at 10 µM in data set [3] turned out to be 55%.

Consider `COc1ccc(CCN2C(=O)N(NS(=O)(=O)CS(C)(=O)=O)CC2c2ccc(C3CC3)cc2)cc1` (stereo not drawn) [Compound 61, 1-[(Methylsulfonylmethyl)sulfonyl]amino-3-[2-(4-methoxyphenyl)ethyl]-4-(4-Cyclopropylphenyl)-2-imidazolidinone], for which the IC50 in data set [1] was 25 µM. In data set [2] (setting [4]), this compound showed an inhibition at 1 µM of 85%. The same compound gave an inhibition at 10 µM in data set [3] of 28%.

For `COc1ccc(CCN2C(=O)N(NS(N)(=O)=O)CC2c2ccc(C(C)(C)C)cc2)cc1` (stereo not drawn) [Compound 9, 1-(Aminosulfonylamino)-3-[2-(4-methoxyphenyl)ethyl]-4-[4-(tert-butyl)phenyl]-2-imidazolidinone], the IC50 in data set [1] was 23 µM; in data set [2] it was 0.689 µM; in data set [3] it was 7.3 µM. The compound further yielded an inhibition at 1 µM in data set [2] (setting [4]) of 90%. In data set [3], this compound returned an inhibition at 10 µM of 62%.

For the compound `COc1ccc(CCN2C(=O)N(NS(=O)(=O)CF)CC2c2ccc(OC)cc2)cc1` (stereo not drawn) [Compound 35, 1-(Fluoromethylsulfonylamino)-3-[2-(4-methoxyphenyl)ethyl]-4-(4-methoxy-phenyl)-2-imidazolidinone], in data set [1], the IC50 is 30 µM. In data set [2] (setting [4]), the inhibition at 1 µM came out at 71%. In addition, testing at 10 µM in data set [3] gave an inhibition of 14%.

On to `COc1ccc(C2CN(NS(=O)(=O)Cc3cccnc3)C(=O)N2CCCc2ccccc2)cc1` (stereo not drawn) [Compound 101, 1-[(Pyridin-3-yl)methylsulfonyl]amino-3-(3-phenylpropyl)-4-(4-methoxyphenyl)-2-imidazolidinone], for which the IC50 in data set [1] was 19 µM. In addition, the inhibition at 1 µM in data set [2] (setting [4]) is 81%. Besides, the inhibition at 10 µM in data set [3] worked out at 24%.

As for `COc1ccc(C2CN(NS(C)(=O)=O)C(=O)N2CCc2ccc(OC(F)F)cc2)cc1` (stereo not drawn) [Compound 142, N-[3-{2-[4-(difluoromethoxy)phenyl]ethyl}-4-(4-methoxyphenyl)-2-oxoimidazolidin-1-yl]methanesulfonamide], the inhibition at 1 µM in data set [2] (setting [4]) came to 40%. The same compound returned an inhibition at 10 µM in data set [3] of 91%.

Compound `COc1ccc(CCN2C(=O)N(NS(C)(=O)=O)CC2C2CCCCC2)cc1` (stereo not drawn) [Compound 145, N-{4-cyclohexyl-3-[2-(4-methoxyphenyl)ethyl]-2-oxoimidazolidin-1-yl}methanesulfonamide] displayed an inhibition at 1 µM in data set [2] (setting [4]) of 16%. Also, the inhibition at 10 µM in data set [3] is 11%.

As for `COc1ccc(CCN2C(=O)N(NS(C)(=O)=O)CC2c2ccc(Cl)cc2)cc1` (stereo not drawn) [Compound 21, 1-(Methylsulfonylamino)-3-[2-(4-methoxyphenyl)ethyl]-4-(4-chlorophenyl)-2-imidazolidinone], in data set [1], the IC50 is 26 µM. Moreover, 1 µM produced 72% inhibition in data set [2] (setting [4]).

For `COc1ccc(CCN2C(=O)N(N)CC2c2ccc(C)c(C)c2)cc1` (stereo not drawn) [Compound 1, 1-Amino-3-[2-(4-methoxyphenyl)ethyl]-4-(3,4-dimethylphenyl)-2-imidazolidinone], the IC50 in data set [1] is 5.5 µM. In data set [2] (setting [4]), this compound returned an inhibition at 1 µM of 59%.

Compound `CCC1(CC)CN(NS(C)(=O)=O)C(=O)N1CCc1ccc(OC)cc1` [Compound 111, N-{4,4-diethyl-3-[2-(4-methoxyphenyl)ethyl]-2-oxoimidazolidin-1-yl}methanesulfonamide] came in with an inhibition at 1 µM in data set [2] (setting [4]) of 9%. This compound registered an inhibition at 10 µM in data set [3] of 33%.

Compound `CCCCC1CN(NS(C)(=O)=O)C(=O)N1CCc1ccc(OC)cc1` (stereo not drawn) [Compound 128, N-{4-butyl-3-[2-(4-methoxyphenyl)ethyl]-2-oxoimidazolidin-1-yl}methanesulfonamide] displayed an inhibition at 1 µM in data set [2] (setting [4]) of 8%. Moreover, the inhibition at 10 µM in data set [3] is 19%.

For orientation: IC50 means the concentration at which inhibition is half-maximal. For orientation: inhibition means the change of the read-out against control, counted positive when it falls. Lower therefore signals a response near the control.

The values are drawn from patent publication US7504517B2, “Kv1.5 potassium channel inhibitors” (Wyeth, priority 2006, dated 2009).
